# How the values were obtained:
# [1] = test system: 7940B orthotopic tumors; assay: 7940B syngeneic orthotopic model in C57BL/6 mice; format: in vivo, mouse; conditions: ESK981 30 mg/kg QD PO, trametinib 1 mg/kg QD PO
# [2] = test system: MIA-PaCa-2 human PDAC cell line xenograft; assay: MIA-PaCa-2 PDAC xenograft (CDX) in SCID mice; format: in vivo; conditions: Day 36 versus Day 1
# Protocol: (§1) For xenograft studies, 6-10-week-old CB17 severe combined immunodeficiency (SCID) mice obtained from the University of Michigan breeding colony were used. For syngeneic studies, 6-10-week-old C57BL6 mice obtained from Jackson Laboratories were used. Subcutaneous tumors were established at both sides of the dorsal flank of the mice by injecting 1×10^6 cells in […] of 50:50 Matrigel and serum-free media. Tumors were measured 2-3 times per week using digital calipers following the formula (π/6) (L×W2), where L=length and W=width of the tumor. At the end of the studies, mice were sacrificed, and tumors extracted and weighed.
# Terminal dUTP Nick End Labeling (TUNEL) staining was performed with an In Situ Cell Death Detection Kit (TMR Red #12156792910; Roche Applied Science) following the manufacturer's instructions. Briefly, fixed sections were permeabilized using Triton X-100 followed by PBS washing. The labelling reaction was performed at 37° C. for 1 hour by addition of the reaction buffer containing enzymes. Images were acquired using a Zeiss Axiolmager M1 microscope.
# Given the enhanced autophagy dependence of PDAC and the urgent need for new therapies, ESK981 was investigated for efficacy in combatting this type of cancer. […]
# [3] = test system: NCI-H660 NEPC cell line-derived xenografts; assay: NCI-H660 NEPC xenograft in SCID mice; format: in vivo; conditions: 46 days of treatment, 30 mg/kg
# Protocol: as §1
# Given the hypoxic and nutrient-depleted environments of NEPC Guo et al., Nat Commun. 2019; 10(1):278; Qi et al., Cancer Cell. 2010; 18(1):23-38., it was hypothesized that NEPC may be dependent on autophagy and sensitive to PIKfyve inhibition by ESK981. To test this NEPC prostate patient-derived xenograft (PDX) of NCI-H660, LTL331R, and LTL610 were subcutaneously grown into non-castrated SCID mice until tumors reached an average size of 100 mm^3, after which mice were randomized into two groups. Mice in each group received either vehicle or 30 mg/kg ESK981 five days per week. […] The anti-tumor effect of ESK981 was in turn confirmed in two additional NEPC PDX models including LTL331R (FIGS. 12-14) and LTL610 xenografts (FIG. 15-17). […]
# [4] = test system: LTL545 NEPC PDX tumors; assay: LTL545 NEPC PDX model; conditions: mouse, in vivo
# [5] = test system: MIA PaCa-2, PANC-1, and 7940B cell lines; assay: Confluence assays of ND646 with PIKfyve inhibitors; format: cell-based, human and mouse; conditions: ND646 100 nM (MIA PaCa-2, PANC-1), 1000 nM (7940B)
# Protocol: (§2) Cells were seeded in a clear 96-well plate overnight prior to treatment. Upon treatment with indicated compounds, plates were incubated in an Incucyte S3 2022 Rev1 (Sartorious), with 10× images taken every 4 hours, and well confluence was analyzed to assess for proliferation.
# [6] = biological target: T1, ACC1 (Homo sapiens, UniProt Q13085); assay: Immunoblot of ACC1 phosphorylation status upon ND646; format: cell-based; conditions: MIA PaCa-2, PANC-1, 7940B cells
# T1 construct: endogenous in cells; host or cells: MIA PaCa-2 (human PDAC)
# Protocol: Cell lysates were prepared in RIPA buffer (ThermoFisher Scientific) supplemented with Halt™ Protease and Phosphatase Inhibitor Cocktail (ThermoFisher Scientific). Total protein was measured by DC™ Protein Assay Kit II (BIO-RAD). An equal amount of protein was resolved in NuPAGE™ 3 to 8%, Tris-Acetate Protein Gel (ThermoFisher Scientific) or NuPAGE™ 4 to 12%, Bis-Tris Protein Gel (ThermoFisher Scientific), blocked with 5% nonfat dry milk in TBS-T and blotted with primary antibodies overnight. Following incubation with HRP-conjugated secondary antibodies, membranes were imaged on an Odyssey CLx Imager (LiCOR Biosciences).
# [7] = test system: 7940B cells; assay: Real-time oxygen consumption rate (Resipher) in 7940B cells; format: cell-based, mouse; conditions: apilimod 100 nM, ESK981 1000 nM, bafilomycin 100 nM, chloroquine 100 μM
# Protocol: Real-time monitoring of basal oxygen consumption rate was performed using a Resipher (Lucid Scientific). […] Immediately following treatment with an additional 50 μl of medium (for a total of 100 μl), OCR monitoring was started by placing the Resipher device on the cells, which was incubated at 37° C. and 5% CO2 for 24 hours.
# [8] = test system: PDAC cells (7940B, PANC-1, Panc 04.03); assay: Rescue of antiproliferative effects with ferric ammonium citrate (FAC); format: cell-based, human and mouse; conditions: with ferric ammonium citrate and ferrostatin-1 (1 μM)
# Protocol: as §2
smiles,measurement,setting,value
CC(=O)Nc1cccc(-n2c(=O)n(C3CC3)c(=O)c3c(Nc4ccc(I)cc4F)n(C)c(=O)c(C)c32)c1 [trametinib],mouse body weight throughout the treatment course,[1],did not impact mouse body weight
"CC(C)Cn1c2ccc(Nc3ncccn3)cc2c2c3c(c4c(c21)CCc1nn(C)cc1-4)C(=O)NC3 [ESK981, 13-isobutyl-4-methyl-10-(pyrimidin-2-ylamino)-1,2,4,7,8,13-hexahydro-6H-indazolo[5,4-a]pyrrolo[3,4-c]carbazol-6-one]",mouse body weight throughout the treatment course,[1],did not impact mouse body weight
same,rate of tumor regression (waterfall plot),[2],64%
same,adverse events,[3],no adverse events were observed
same,individual tumors regressed (waterfall plot),[4],80%
same,tumors cured,[4],80%
COc1ccccc1[C@H](Cn1c(=O)n(C(C)(C)C(N)=O)c(=O)c2c(C)c(-c3ncco3)sc21)OC1CCOCC1 [ND646],sensitization to ESK981 (confluence),[5]; ESK981 30 nM or 100 nM,sensitized
same,sensitization to apilimod (confluence),[5]; apilimod 100 nM or 50 nM,sensitized
same,phosphorylation status of ACC1 (p-ACC1),[6],on-target effects
CO/C1=C\C(C)=C\[C@@H](C)[C@@H](O)[C@@H](C)C/C(C)=C/C=C/[C@H](OC)[C@@H]([C@@H](C)[C@@H](O)[C@H](C)[C@@]2(O)C[C@@H](O)[C@H](C)[C@@H](C(C)C)O2)OC1=O [bafilomycin A1],OCR through 24 hours of treatment,[7],significantly decreased OCR
same,antiproliferative effects upon addition of FAC,[8],drastically attenuated

# Source: US20260053801A1, “METHOD FOR TREATING AUTOPHAGY DEPENDENT CANCER WITH A PIKFYVE INHIBITOR” (The Regents of the University of Michigan, priority 2023, published 2026)
